Measured values published in BindingDB's records for patent US10301305 (Mutabilis, 2019).

What was measured:
Assay in all cases: in vitro DltA activity assay
[1] = target: T1, D-alanine--D-alanyl carrier protein ligase (Enterococcus faecalis (strain ATCC 700802 / V583), UniProt Q830N0)
T1 sequence (Q830N0 whole entry): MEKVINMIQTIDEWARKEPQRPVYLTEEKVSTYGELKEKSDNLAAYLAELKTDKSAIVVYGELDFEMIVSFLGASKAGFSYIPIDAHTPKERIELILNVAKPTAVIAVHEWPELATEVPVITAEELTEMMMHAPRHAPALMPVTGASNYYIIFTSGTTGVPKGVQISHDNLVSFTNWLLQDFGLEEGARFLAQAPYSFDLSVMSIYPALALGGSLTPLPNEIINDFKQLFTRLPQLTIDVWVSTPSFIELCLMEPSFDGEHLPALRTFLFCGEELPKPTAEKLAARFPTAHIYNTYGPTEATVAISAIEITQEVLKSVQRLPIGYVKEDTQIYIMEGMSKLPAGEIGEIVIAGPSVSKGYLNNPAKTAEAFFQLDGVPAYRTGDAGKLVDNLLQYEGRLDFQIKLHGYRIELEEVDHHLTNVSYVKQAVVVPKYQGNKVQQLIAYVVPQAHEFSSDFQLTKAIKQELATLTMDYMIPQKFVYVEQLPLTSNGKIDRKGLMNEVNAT
Experimental: (§1) The assay buffer AB contained 50 mM Hepes pH8.0, 10 mM MgCl2, 50 mM KCl, 0.012% Triton-X100, 10 mM DTT and 100 nM Myelin-basic protein. The following components were added in a white polystyrene Costar plate up to a final volume of 30 μL: 3 μL DMSO, or inhibitor dissolved in DMSO and 27 μL DltA enzyme in AB. After 30 min of pre-incubation at room temperature, 30 μL of Substrates mix in AB were added in each well to a final volume of 60 μL. This reaction mixture was then composed of DltA (produced in house from S. aureus, E. faecalis, E. faecium and S. agalactiae), 0.5 mM D-Alanine (Sigma), 0.5-5 μM ATP (Sigma) and 0.05 u/ml inorganic pyrophosphatase (Sigma) in assay buffer. After typically 1-2 hours of incubation at room temperature (conversion rate around 30%), 30 μL of the revelation mix were added to a final volume of 90 μL, including the following constituents at the respective final concentrations: 10000 u/ml luciferase (Sigma), 30 μM D-luciferin (Sigma), 100 μM N-acetylcysteamine (Aldrich). Luminescence intensity was immediately measured on a Fluostar Optima (BMG) (excitation 360 nm, emission 520 nm) and converted into inhibition percentages. For IC50 determinations (Inhibitory Concentration 50%) the inhibitor was added at 6 to 10 different concentrations and the related inhibitions were fitted to a classical Langmuir equilibrium model using XLFIT (IDBS).

[2] = target: T2, D-alanine--D-alanyl carrier protein ligase (Enterococcus faecium (strain ATCC BAA-472 / TX0016 / DO), UniProt Q3XZT7)
T2 sequence (Q3XZT7 whole entry): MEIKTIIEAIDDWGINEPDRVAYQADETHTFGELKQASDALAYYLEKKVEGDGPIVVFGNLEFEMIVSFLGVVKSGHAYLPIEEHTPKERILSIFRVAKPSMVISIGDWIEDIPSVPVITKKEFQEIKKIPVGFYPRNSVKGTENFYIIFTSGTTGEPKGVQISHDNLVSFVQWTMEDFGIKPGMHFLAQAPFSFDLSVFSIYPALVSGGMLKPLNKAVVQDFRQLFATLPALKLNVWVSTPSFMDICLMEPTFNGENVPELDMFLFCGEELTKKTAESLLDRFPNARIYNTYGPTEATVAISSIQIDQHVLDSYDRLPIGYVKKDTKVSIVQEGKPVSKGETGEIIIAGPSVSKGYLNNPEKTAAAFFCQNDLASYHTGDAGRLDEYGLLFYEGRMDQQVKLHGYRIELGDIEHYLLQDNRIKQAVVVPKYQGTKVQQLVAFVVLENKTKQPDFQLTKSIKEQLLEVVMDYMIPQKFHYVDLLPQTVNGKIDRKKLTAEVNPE
Experimental: as §1

[3] = target: T3, D-alanine--D-alanyl carrier protein ligase (Staphylococcus aureus, UniProt Q2FZW6)
T3 construct: gene dltA
T3 sequence (Q2FZW6 whole entry, looked up): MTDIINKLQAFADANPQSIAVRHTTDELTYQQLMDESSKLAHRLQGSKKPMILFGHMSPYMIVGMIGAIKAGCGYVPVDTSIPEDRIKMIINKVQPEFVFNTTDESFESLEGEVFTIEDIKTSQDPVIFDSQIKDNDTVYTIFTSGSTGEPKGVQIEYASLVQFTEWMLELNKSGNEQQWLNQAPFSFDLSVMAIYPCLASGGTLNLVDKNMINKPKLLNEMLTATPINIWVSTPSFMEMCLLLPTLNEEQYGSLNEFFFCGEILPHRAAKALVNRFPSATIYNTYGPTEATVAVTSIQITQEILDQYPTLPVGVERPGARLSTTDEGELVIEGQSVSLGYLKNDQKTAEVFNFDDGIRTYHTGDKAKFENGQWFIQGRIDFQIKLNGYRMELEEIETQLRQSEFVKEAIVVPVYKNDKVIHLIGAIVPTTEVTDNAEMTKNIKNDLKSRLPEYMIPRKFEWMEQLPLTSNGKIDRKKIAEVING
Experimental: as §1

Work on `C[C@H]1CCCC(n2cnc3cc(-c4cc(N(C)CCN(C)C)c(C(N)=O)c5[nH]cnc45)ccc32)C1` (mixture of isomers) yielded an IC50 [1] of 4.3 nM and an IC50 [2] of 25 nM.

`COc1cc(-c2ccc3c(c2)ncn3C2CCCCC2)c2nc[nH]c2c1C(N)=O` [US10301305, Example 88] was tested, and the IC50 [3] was 33 nM, the IC50 [1] was 26 nM and the IC50 [2] was 79 nM.

`CCn1cnc2cc(-c3cc(OCCN(C)C)c(C(N)=O)c4[nH]cnc34)ccc21` [US10301305, Example 198] gave an IC50 [3] of 6.8 nM, an IC50 [1] of 8.3 nM and an IC50 [2] of 73 nM.
